In patent US5508450A, “Benzopyran derivatives” (Ono Pharmaceutical Co., Ltd., priority 1989, dated 1996):
Where a name gives a salt, the structure may show the parent alone.

Tests used:
[1] = system: Lysozyme (dimer formation with fructose); assay: Inhibitory activity on Maillard reaction: formation of lysozyme dimer (lysozyme + fructose, SDS-PAGE, densitometer); format: biochemical; settings: lysozyme 10 mg/ml, fructose 100 mM, 0.2M sodium phosphate buffer pH 7.4, 37° C., 3 days
Method: The inhibitory activity on Maillard reaction of the compounds of the present invention has confirmed by the screening system mentioned below. Lysozyme (10 mg/ml) and fructose (100 mM) were dissolved in 0.2M sodium phosphatic buffer solution (PH 7.4). The solution was incubated at a temperature of 37° C. for 3 days. A given volume of the reaction solution was separated using SDS-PAGE by the electrophoresis. After the electrophoresis, the SDS-PAGE was dyed by 0.2% Coomassie Brilliant Blue R-250 and then the dimer was determined by densitometer. The compounds of the present invention were added before incubation and the inhibitory activity of them against the formation of the dimer was examined in various concentrations and IC50 values were calculated.

[2] = system: lipid peroxide formation in rat liver homogenate; assay: Antioxiding effect: inhibitory activity against formation of peroxidized fat (lipid peroxide by TBA method); format: biochemical, Male Sprague Dawley rat; settings: 200 μM FeCl2, 10% rat liver homogenate, 37° C., 1 hr
Method: The antioxiding effect of the compounds of the present invention has confirmed by the screening system which examines inhibitory activity against formation of peroxidized fat mentioned below. Male Sprague Dawley rat was fasted for 12 hrs (overnight) before experiments, and was anesthetized with ether. Rat liver was perfused with ice-cold 0.9% NaCl via the portal vein, and promptly excised. 10% Liver homogenates were prepared in ice-cold 1.15% KCl. The reaction was started by adding 200 μM FeCl2 to the liver homogenate ([…]), and incubated at 37° C. for 1 hr. Lipid peroxide was measured by the TBA method according to the method of Ohkawa (See Analytical Biochemistry,95, 351 (1979)). The compounds of the present invention were added before incubation. And the efficacy thereof was examined and calculated IC50 values thereof.

Maillard reaction = settings: Brownlee et al., Science 232, 1629 (1986); cited from earlier work
[3] = system: advanced glycosylation end products in arterial wall connective tissue protein; settings: administered to diabetic rats; Brownlee et al., Science 232, 1629 (1986); cited from earlier work

Row | Compound | IC50 [1] [µM] | IC50 [2] [nM] | inhibition of Maillard reaction in vitro (Maillard reaction) | inhibition of diabetes-induced accumulation of advanced glycosylation end products in arterial wall connective tissue protein [3]
1 | Cc1c(C)c2c(c(C)c1O)CCC(C)(CCOC(=O)c1ccc(NC(=N)N)cc1)O2 (stereo not drawn) [1 (a), 2-(6-hydroxy-2,5,7,8-tetramethyl-3,4-dihydro-2H-benzo[1,2-b]pyran-2-yl)ethyl4-quanidinobenzoate hydrochloride] | 200 | 540 |  | 
2 | Cc1c(C)c2c(c(C)c1O)CCC(C)(CCOC(=O)C1CCC(CNC(=N)N)CC1)O2 (stereo not drawn) [1 (b), 2-(6-hydroxy-2,5,7,8-tetramethyl-3,4-dihydro-2H-benzo[1,2-b]pyran-2-yl)ethyl4-quanidinomethylcyclohexane carboxylatehydrochloride] |  | 780 |  | 
3 | Cc1c(C)c2c(c(C)c1O)CCC(C)(CCOC(=O)CCCCNC(=N)N)O2 (stereo not drawn) [1 (c), 2-(6-hydroxy-2,5,7,8-tetramethyl-3,4-dihydro-2H-benzo[1,2-b]pyran-2-yl)ethyl5-quanidinopentanoate hydrochloride] |  | 800 |  | 
4 | Cc1c2c(c3ccccc3c1O)OC(C)(CCOC(=O)c1ccc(NC(=N)N)cc1)CC2 (stereo not drawn) [1 (e), 2-(2,5-dimethyl-6-hydroxy-3,4-dihydro-2H-naphtho[1,2-b]pyran-2-yl)ethyl 4-quanidinobenzoatehydrochloride] | 50 | 160 |  | 
5 | Cc1c(C)c2c(c(C)c1O)CCC(C)(CCOC(=O)CCc1ccc(NC(=N)N)cc1)O2 (stereo not drawn) [1 (g), 2-(6-hydroxy-2,5,7,8-tetramethyl-3,4-dihydro-2H-benzo[1,2-b]pyran-2-yl)ethyl3-(4-quanidinophenyl)-propionate hydrochloride] |  | 900 |  | 
6 | Cc1c(C)c2c(c(C)c1O)CCC(C)(CCOC(=O)/C=C/c1ccc(NC(=N)N)cc1)O2 (stereo not drawn) [1 (h), 2-(6-hydroxy-2,5,7,8-tetramethyl-3,4-dihydro-2H-benzo[1,2-b]pyran-2-yl)ethyl4-quanidinocinnamate hydrochloride] | 53 | 900 |  | 
7 | Cc1c2c(c3ccccc3c1O)OC(C)(CCOC(=O)c1ccc(CNC(=N)N)cc1)CC2 (stereo not drawn) [1 (j), 2-(2,5-dimethyl-6-hydroxy-3,4-dihydro-2H-naphtho[1,2-b]pyran-2-yl)ethyl 4-quanidinomethylbenzoatehydrochloride] | 60 | 460 |  | 
8 | Cc1c2c(c3ccccc3c1O)OC(C)(CCOC(=O)c1cccc(NC(=N)N)c1)CC2 (stereo not drawn) [1 (k), 2-(2,5-dimethyl-6-hydroxy-3,4-dihydro-2H-naphtho[1,2-b]pyran-2-yl)ethyl 3-quanidinobenzoatehydrochloride] |  | 440 |  | 
9 | Cc1c2c(c3ccccc3c1O)OC(C)(CCOC(=O)/C=C/c1ccc(NC(=N)N)cc1)CC2 (stereo not drawn) [1 (l), 2-(2,5-dimethyl-6-hydroxy-3,4-dihydro-2H-naphtho[1,2-b]pyran-2-yl)ethyl 4-quanidinocinnamatehydrochloride] |  | 380 |  | 
10 | Cc1c(C)c2c(c(C)c1O)CCC(C)(CCOC(=O)c1ccc(N(C)C(=N)N)cc1)O2 (stereo not drawn) [1 (m), 2-(6-hydroxy-2,5,7,8-tetramethyl-3,4-dihydro-2H-benzo[1,2-b]pyran--2-yl)ethyl 4-(1-methylquanidino)-benzoate hydrochloride] | 440 | 600 |  | 
11 | Cc1c(C)c2c(c(C)c1O)CCC(C)(CCNC(=O)C1CCC(CNC(=N)N)CC1)O2 (stereo not drawn) [2 (a), N-[2-(6-hydroxy-2,4,7,8-tetramethyl-3,4-dihydro-2H-benzo[1,2-b]pyran-2-yl)-ethyl]-4-quanidinomethyl-cyclohexanecarboxamide hydrochloride] |  | 780 |  | 
12 | Cc1c(C)c2c(c(C)c1O)CCC(C)(CCNC(=O)c1ccc(CNC(=N)N)cc1)O2 (stereo not drawn) [2 (b), N-[2-(6-hydroxy-2,4,7,8-tetramethyl-3,4-dihydro-2H-benzo[1,2-b]pyran-2-yl)-ethyl]-4-quanidinomethyl-benzamide hydrochloride] |  | 470 |  | 
13 | Cc1c(C)c2c(c(C)c1O)CCC(C)(CCOC(=O)c1ccc(CNC(=N)N)cc1)O2 (stereo not drawn) [Example 1, 2-(6-hydroxy-2,5,7,8-tetramethyl-3,4-dihydro-2H-benzo[1,2-b]pyran-2-yl)ethyl 4-guanidinomethylbenzoate hydrochloride] |  | 600 |  | 
14 | Cc1c(C)c2c(c(C)c1O)CCC(C)(CCNC(=O)c1ccc(NC(=N)N)cc1)O2 (stereo not drawn) [Example 2, N-[2-(6-hydroxy-2,5,7,8-tetramethyl-3,4-dihydro-2H-benzo[1,2-b]pyran-2-yl)ethyl]-4-guanidinobenzamide hydrochloride] | 450 | 660 |  | 
15 | Cc1c(C)c2c(c(C)c1O)CCC(C)(CCNC(=N)NN)O2 (stereo not drawn) [Example 3, 1-amino-3-[2-(6-hydroxy-2,5,7,8-tetramethyl-3,4-dihydro-2H-benzo[1,2-b]pyran-2-yl)ethyl]guanidine hydroiodide] | 360 | 540 |  | 
16 | Cc1c(C)c2c(c(C)c1O)CCC(C)(CCOc1ccc(CCOc3ccc(NC(=N)N)cc3)cc1)O2 (stereo not drawn) [Example 27, 4-guanidinophenyl 2-[4-[2-(6-hydroxy-2,5,7,8-tetramethyl-3,4-dihydro-2H-benzo[1,2-b]pyran-2-yl)ethoxy]phenyl]ethyl ether hydrochloride] | 5.8 |  |  | 
17 | Cc1c(C)c2c(c(C)c1O)CCC(C)(CCCCCCSc1ccc(NC(=N)N)cc1)O2 (stereo not drawn) [Example 29, 4-guanidinophenyl 6-(6-hydroxy-2,5,7,8-tetramethyl-3,4-dihydro-2H-benzo[1,2-b]pyran-2-yl)-n-hexyl thioether hydrochloride] | 7.5 |  |  | 
18 | N=C(N)NN [aminoguanidine] |  |  | inhibits Maillard reaction in vitro | inhibits diabetes-induced accumulation of advanced glycosylation end products in arterial wall connective tissue protein
19 | N-[4-[2-(6-hydroxy-2,5,7,8-tetramethyl-3,4-dihydro-2H-benzo[1,2-b]pyran-2-yl)-ethoxy]phenyl]-3-guanidino-cinnamamide hydrochloride [7 (b)] | 12 |  |  | 
